Results as given in US20140050778A1, “NUCLEIC ACID BINDING COMPOUNDS, METHODS OF MAKING, AND USE THEREOF” (UNIVERSITY OF ROCHESTER, priority 2010, published 2014).
Read-outs that look alike come from different tables or passages of the source.

Tests used:
[1] = test system: (CUG)2 RNA (SEQ ID NO: 1); assay: SPR binding to immobilized biotinylated RNA; conditions: for Off-rates (koff) / On-rates (kon): SPR; for ka / kd: Table 7, SPR
Procedure: (§1) SPR binding measurements were performed on a Biacore-X instrument (Biacore, Inc., Uppsala, Sweden) with two flow channels (FC1 and FC2). 5′-Biotinylated-RNA sequences, with a C6 linker separating the biotin label from the RNA (Integrated DNA Technologies Inc.) were immobilized on streptavidin (Rockland Immunochemicals) functionalized carboxylmethyl dextran coated sensor chips (CM5, G.E. Healthcare) using EDC/NHS (Advanced ChemTech) coupling chemistry. Filtered (0.2μ), degassed and autoclaved HBS-N buffer (0.01M Hepes, pH=7.4, 0.15 M NaCl) was employed as sample and as running buffer for all SPR experiments. A typical protocol for an experiment is as follows: A CM5 sensor chip was allowed to equilibrate to room temperature and then docked into the instrument. Following priming with running buffer, FC1 and FC2 were conditioned by manual injection of 20 μL aqueous NaOH (50 mM) at a flow rate of 30 μL/min. This was repeated 3 times followed by a wash command. Next, the carboxyl groups on the sensor chip surface in both flow cells were activated separately by injecting 60 μL of freshly prepared 1:1 mixture of EDC (0.4 M) and NHS (0.1 M) at a 5 μL/min flow rate followed by a wash. […] After washing, the surface was deactivated with 60 μL injection of ethanolamine (1M, pH=8.5) at 5 μL/min. The flow cells were primed, and the streptavidin surface in FC1 alone was blocked with 30 μL of biotin (20 μM in HBS-N) at 5 μL/min. The RNA (200 nM in running buffer, HBS-N) to be immobilized was unfolded by heating above its predicted melting temperature in a heated block for 2 min and then allowed to refold by cooling gradually to room temperature. The RNA was then immobilized in FC2 alone to response units ranging from 200-1000 RU using a 5 μL/min flow rate. Representative sensorgrams for the immobilization procedure is shown in FIGS. 2A-B. Two 20 μL aliquots of NaCl (0.5 M) were injected at a 30 μL/min flow rate to remove non-specifically bound RNA. The level of RNA immobilized was noted when the baseline was stable, usually after repeated buffer injection followed by a “prime” command. Binding measurements were performed by flowing various concentrations of the compounds to be analyzed over the immobilized RNA and recording the reference-subtracted (FC2−FC1) sensorgrams. For kinetic analysis, at least five sensorgrams corresponding to different concentrations of compound (usually ranging from 0.05-1 μM in HBS-N) were obtained using flow rates of either 60 μL/min or 30 μL/min. The experimental sensorgrams were globally fitted to a 1:1 binding equation (Biaevaluation software) to obtain association rates (ka) and dissociation rates ([…]) as well as equilibrium binding constants (KD). To measure the binding stoichiometry (n), the relations in equations (1-3) below were used: […]
(§2) where RUmax is the maximum resonance response unit at saturation, RURNA is the amount RU of RNA immobilized, n is the stoichiometry, MWcompound and MWRNA are molecular weights of compound and RNA respectively, and RUeq represents the resonance response at steady-state (equilibrium). The response units at equilibrium were subjected to Scatchard binding plots of (r/Cfree vs. r).
(§3) The binding characteristics of compounds 3-11 were evaluated against pathogenic CUG^exp RNA and other RNA sequences by SPR. This technique allows the association and dissociation rates (ka and kd), equilibrium binding constants (KD), and the binding stoichiometry (n) to be measured in a label-free format (Liu and Wilson, “Quantitative Analysis of Small Molecule-nucleic Acid Interactions with a Biosensor Surface and Surface Plasmon Resonance Detection,” Methods Mol. Biol. 613:1-23 (2010), which is hereby incorporated by reference in its entirety). […]

[2] = test system: (CAG)10 RNA (SEQ ID NO: 5); assay: SPR binding to immobilized biotinylated RNA; conditions: for Off-rates (koff) / On-rates (kon): SPR
Procedure: as §1, §2, §3

[3] = test system: (CCUG)10 RNA (SEQ ID NO: 4); assay: SPR binding to immobilized biotinylated RNA; conditions: (CCUG)10; for Off-rates (koff) / On-rates (kon): SPR
Procedure: as §1, §2, §3

[4] = test system: CUG-CAG duplex ("Duplex") (SEQ ID NO: 6); assay: SPR binding to immobilized biotinylated RNA; conditions: for Residence time (t1/2) for compound binding to RNA / Off-rates (koff) / On-rates (kon): Duplex
Procedure: as §1, §2, §3

[5] = test system: (CUG)4 RNA (SEQ ID NO: 2); assay: SPR binding to immobilized biotinylated RNA; conditions: for Off-rates (koff) / On-rates (kon): SPR
Procedure: as §1, §2, §3

[6] = test system: (CUG)10 RNA (SEQ ID NO: 3); assay: SPR binding to immobilized biotinylated RNA; conditions: (CUG)10; for improvement in affinity relative to compound 1: SPR KD versus filter-binding KD of compound 1
mouse myoblasts = assay: MTT toxicity assay; type: cell-based; conditions: individually
Procedure: For toxicity studies, mouse myoblasts or human fibroblasts were plated in a 96-well tissue culture plate in DMEM (10% fetal bovine serum, 100 units/ml penicillin, […]) and allowed to grow to approximately 80% confluence at 37° C. under CO2. Varying compound concentrations (up to 1 mM) were incubated with cells (48 hours, 37° C.). Media was then removed, and 3-(4,5-dimethylthiazol-2-yl)-2,5-diphenyltetrazolium bromide (“MTT”) in media was added to each well and incubated at 37° C. for 4 h. After removal of the MTT media, isopropanol (100 pp was added, and absorbance was measured at 600 nm on a Modulus microplate reader (Turner Biosystems).

Row | Structure (SMILES) | Residence time (t1/2) for compound binding to RNA [1] [s] | Off-rates (koff) [1] [s⁻¹] | On-rates (kon) [1] [M⁻¹ s⁻¹] | ka [1] | kd [1] | Residence time (t1/2) for compound binding to RNA [2] [s] | Off-rates (koff) [2] [s⁻¹] | On-rates (kon) [2] [M⁻¹ s⁻¹] | Residence time (t1/2) for compound binding to RNA [3] [s] | Off-rates (koff) [3] [s⁻¹] | On-rates (kon) [3] [M⁻¹ s⁻¹] | Residence time (t1/2) for compound binding to RNA [4] [s] | Off-rates (koff) ([4]; SPR) [s⁻¹] | On-rates (kon) ([4]; SPR) [M⁻¹ s⁻¹] | Residence time (t1/2) for compound binding to RNA [5] [s] | Off-rates (koff) [5] [s⁻¹] | On-rates (kon) [5] [M⁻¹ s⁻¹] | Residence time (t1/2) for compound binding to RNA [6] [s] | improvement in affinity relative to compound 1 [6] | Off-rates (koff) ([6]; SPR) [s⁻¹] | further results
1 | CCc1nc2cc3ccccc3cc2cc1C(=O)N1CCC[C@H]1C(=O)N[C@@H](C/C=C\C[C@H](NC(=O)[C@@H]1CCCN1C(=O)c1cc2cc3ccccc3cc2nc1CC)C(=O)N[C@@H](CCCCN)C(=O)NCCCN)C(=O)N[C@@H](CCCCN)C(=O)NCCCN [Compound 4] | 784.82 | 0.000883 | 24500 | ka = 2.45E+4/M * s | kd = 8.83E−4/s | 239.79 | 0.00289 | 35600 | 376.63 | 0.00184 | 60100 | 452.94 | 0.00153 | 29500 | 425.15 | 0.00163 | 42400 | 587.29 | roughly 50 fold | 0.00118 | binding to duplex CUG-CAG stronger than the E isomer, compound 5 ([4]; SPR): approximately 5.7 fold; On-rates (kon) ([6]; SPR): 27800 M⁻¹ s⁻¹; Kd ([6]; SPR, read-out: apparent KD): 45 ± 3.3 nM; ka ([6]; Table 7, SPR): ka = 2.78E+4/M * s; kd ([6]; Table 7, SPR): kd = 1.18E−3/s; Kd ([6]; Table 7, SPR, read-out: KD): 45 nM; toxicity (MTT) (mouse myoblasts): increasing toxicity was observed in mouse myoblasts above 100 μM
2 | CCc1nc2cc3ccccc3cc2cc1C(=O)N1CCC[C@H]1C(=O)N[C@@H](C/C=C/C[C@H](NC(=O)[C@@H]1CCCN1C(=O)c1cc2cc3ccccc3cc2nc1CC)C(=O)N[C@@H](CCCCN)C(=O)NCCCN)C(=O)N[C@@H](CCCCN)C(=O)NCCCN [Compound 5] | 901.17 | 0.000769 | 20100 | ka = 2.01E+4/M * s | kd = 7.69E−4/s | 253.85 | 0.00273 | 50200 | 702.13 | 0.000987 | 49700 | 180.47 | 0.00384 | 15000 | 498.56 | 0.00139 | 30100 | 280.57 | roughly 50 fold | 0.00247 | On-rates (kon) ([6]; SPR): 28400 M⁻¹ s⁻¹; Kd ([6]; SPR, read-out: apparent KD): 88.2 ± 0.28 nM; ka ([6]; Table 7, SPR): ka = 2.84E+4/M * s; kd ([6]; Table 7, SPR): kd = 2.47E−3/s; Kd ([6]; Table 7, SPR, read-out: KD): 88 nM; toxicity (MTT) (mouse myoblasts): increasing toxicity was observed in mouse myoblasts above 100 μM
